Measured values taken from US6270780A, “Cosmetic compositions containing resveratrol” (Chesebrough-Pond's USA Co., division of Conopco, priority 1998, dated 2001).
Read-outs that look alike come from different tables or passages of the source.

Legend:
[1] = system: cyclo-oxygenase; settings: known; cited from earlier work
[2] = Cell viability of B16 cells by neutral red dye uptake; format: cell-based; settings: mouse, b16 f1 cells
Method: In order to ensure that melanin inhibition was not simply due to cell killing, cell viability was assessed by neutral red dye uptake. After the removal of media, 200 μL of pre-warmed medium containing 25 μg/ml neutral red dye was added to each well and incubated for 3 hours. Cells were washed 2× with PBS. The dye was extracted by adding […] of 50 H2O: 49 ethanol: 1 acetic acid and then gently shaken at room temperature for 20 minutes. The dye was quantified by reading the absorbance at 530 nm. Only viable cells are expected to take up the dye and the absorbance is directly proportional to the number of viable cells surviving the treatment.
(§1) For each treatment, the average of four replicate readings was calculated and expressed as percent of the average for the untreated control.

[3] = system: human promyelocytic leukemia cells; settings: Jang et al., Science 275: 218-220, 1997; cited from earlier work
[4] = system: ZR75 cells; test: 3H-thymidine incorporation (DNA synthesis) / proliferation of ZR75 cells, estrogen-like activity; format: cell-based, human
Source text: The following test was employed to determine whether resveratrol has an estrogen-like activity:
The ZR75 cell line is a ductal breast carcinoma cell line, originally isolated from malignant mammary epithelium of a person (Engel et al., Human breast carcinoma cells in continuous culture: A review., Cancer Res., 38: 4327-4339, 1978). This cell line contains receptors for estrogen, progesterone and other steroid hormones, but responds through an increase in proliferation only to estrogen. The cell line contains high affinity estrogen-specific receptors. Therefore, this cell line is used for testing estrogen-like activity (Markiewicz et al., In vitro bioassays of non-steroidal phytoestrogens, J. Steroid Biochem. Molec. Biol., 45: 399-405, 1993)
Methodology Used for Determining the Rate of DNA Synthesis in Cells
The incorporation of ^3 H-thymidine by cultured cells was used as an assay of cell proliferation (both for ZR75 cells and for keratinocytes). Thymidine is one of four deoxynucleosides which are the monomeric units of DNA. Prior to cell division of a somatic cell, the complete genome of the cell undergoing cell division is replicated. This involves large scale DNA synthesis by the cell and enables both daughter cells to receive identical copies of the genetic material. When ^3 H-thymidine is included in the culture media of cells which are synthesizing DNA in preparation for cell division then the labeled thymidine is incorporated into the newly synthesized DNA. The extent of incorporation of ^3 H-thymidine into a population of cells is proportional to the rate of DNA synthesis by this population of cells and therefore an indication of their cellular proliferation.
ZR75 cells (from American Type Culture Collection, Rockville, Md.) were grown in RPMI1640 media (from Gibco Life Technologies) with 10% fetal bovine serum (FBS) , 100 units penicillin per ml and 100 units of streptomycin per ml. All incubations were performed at 37° C. in 5% CO2. […] The cells were seeded at a density of one million per 75 cm2 flask. For the experiment, the cells were seeded in 24 well plates at 100,000 cells per ml per well.
After growing for 24 hours, the media was removed, the cells were washed with PBS (phosphate buffered saline, 0.01 M sodium phosphate, 0.138 M sodium chloride, 0.0027 M potassium chloride, pH 7.4) and 1 ml of RPMI 1640 without serum (but with streptomycin and penicillin) was added. Stock solutions of resveratrol in dimethyl sulfoxide (DMSO) and estradiol in water were prepared. […] After another 24 hours, one μCi of [methyl-3H] thymidine was added to each well. The media was removed after 24 hours. The cells were washed once in PBS, the PBS was removed completely and the cells were left on ice to incubate with 1 ml per well of 10% TCA (trichloroacetic acid) for 30 minutes. The plates were washed 3 times with 5% TCA to remove all traces of thymidine which wasn't incorporated into the cells. 500 μl of 0.1M sodium hydroxide was added to each well and the plates were incubated at room temperature for at least 30 minutes. 250 μl of each sample was transferred to scintillation vials and after adding 5 mL of counting fluid, the vials were counted for 5 minutes each on a setting for tritium. […] Values were expressed as mean of quadruplicate wells +/- standard deviation.

[5] = system: B16 F1 cells; test: Melanin production by B16 cells; format: cell-based
Method: B16 F1 cells were purchased from ATCC (Rockville, Md.) Subconfluent B16 cells were seeded in 96 well microtiter plates at a density of 5000 cells/well and cultured overnight in DMEM (Life Technologies, NY) containing 10% Fetal Bovine Serum, 1% penicillin/streptomycin without phenol red) at 37° C. under 5% CO2. After 24 hours, the media was replaced with fresh media containing the treatments. Cells were incubated for 72 hours at which time melanin was visible in the control treatment. Next, the melanin containing media from each well was transferred to a clean 96 well plate and quantified by reading the absorbance at 530 nm using a microplate Spectrophotometer.
as §1
The lower the % melanin value (with a viability value of >50%), the better the skin lightening potential.

[6] = Homo sapiens, ZR75, read-out: DNA synthesis (% of Control), EXPT 1, control DMSO
[7] = Homo sapiens, ZR75, read-out: DNA synthesis (% of Control), EXPT 2, control DMSO

Oc1ccc(/C=C/c2cc(O)cc(O)c2)cc1 [Resveratrol, 3,4'5-stilbenetriol]
cyclo-oxygenase inhibition [1]: known cyclo-oxygenase inhibitor | viability at 72 h, 10 µM ([2]; 10 μM): 94.6% | viability at 72 h, 25 µM ([2]; 25 μM): 86.8% | viability at 72 h, 50 µM ([2]; 50 μM): 69.2% | viability at 72 h, 100 µM ([2]; 100 μM): 1.8% | differentiation of human promyelocytic leukemia cells [3]: induce differentiation of human promyelocytic leukemia cells | activity at 0.5 µM [4, 6]: 69.7 ± 10% | activity at 1 µM [4, 6]: 58.8 ± 9% | activity at 10 µM [4, 6]: 208 ± 32.5% | activity at 20 µM [4, 6]: 135 ± 21.4% | activity at 40 µM ([4]; Homo sapiens, ZR75, read-out: DNA synthesis (% of Control), EXPT 1, 40 μM, control DMSO): 60.8 ± 26.4% | activity at 50 µM ([4]; Homo sapiens, ZR75, read-out: DNA synthesis (% of Control), EXPT 1, 50 μM, control DMSO): 4.1 ± 1.4% | activity at 0.5 µM [4, 7]: 56.8 ± 4.2% | activity at 1 µM [4, 7]: 60.5 ± 3.6% | activity at 5 µM ([4]; Homo sapiens, ZR75, read-out: DNA synthesis (% of Control), EXPT 2, 5 μM, control DMSO): 159 ± 4.1% | activity at 10 µM [4, 7]: 163 ± 13.7% | activity at 15 µM ([4]; Homo sapiens, ZR75, read-out: DNA synthesis (% of Control), EXPT 2, 15 μM, control DMSO): 119 ± 2.5% | activity at 20 µM [4, 7]: 68 ± 3.9% | proliferation of ZR 75 cells ([4]; concentration from 5 to 20 μM): increased proliferation of ZR 75 cells | activity at 10 µM ([5]; Mus musculus, B16-F1, 10 μM, 72 hours): 80% | activity at 25 µM ([5]; Mus musculus, B16-F1, 25 μM, 72 hours): 4% | activity at 50 µM ([5]; Mus musculus, B16-F1, 50 μM, 72 hours): 3.9% | activity at 100 µM ([5]; Mus musculus, B16-F1, 100 μM, 72 hours): 6.6% | melanin production by skin cells ([5]; all concentrations tested where viability was greater than 50%): inhibited melanin production by skin cells
